Data published in ChEMBL document CHEMBL4266012, “Identification of Quinoline-Based RIP2 Kinase Inhibitors with an Improved Therapeutic Index to the hERG Ion Channel” (ACS Med Chem Lett, 2018).
One block for each molecule: values may come before it.

What was measured:
[1] = Half life in Sprague-Dawley rat at 1 mg/kg, iv by LC-MS/MS analysis; format: ADME, organism-based; settings: in vivo
[2] = Fraction unbound in Sprague-Dawley rat plasma; format: ADME, cell-free
Rattus norvegicus = test: Time at which plasma concentration stays above in vitro human whole blood IC50 in Crl:CD(SD) rat peritonitis model at 2 mg/kg, po; format: ADME, organism-based; settings: in vivo
[3] = Cmax in Sprague-Dawley rat at 2 mg/kg, po by LC-MS/MS analysis; format: ADME, organism-based; parameters: dose 2 mg/kg, route oral; settings: in vivo
[4] = AUC in Sprague-Dawley rat at 2 mg/kg, po by LC-MS/MS analysis; format: ADME, organism-based; settings: in vivo
[5] = Oral bioavailability in Sprague-Dawley rat at 2 mg/kg by LC-MS/MS analysis; format: ADME, organism-based; settings: in vivo
[6] = Cardiotoxicity in arterially perfused rabbit cardiac left ventricular wedge assessed as change in QT interval at 0.3 uM by electrophysiology assay; format: toxicity, tissue-based, Oryctolagus cuniculus, Heart left ventricle
[7] = Cardiotoxicity in arterially perfused rabbit cardiac left ventricular wedge assessed as change in QT interval at 1 uM by electrophysiology assay; format: toxicity, tissue-based, Oryctolagus cuniculus, Heart left ventricle
[8] = Cardiotoxicity in arterially perfused rabbit cardiac left ventricular wedge assessed as change in QT interval at 3 uM by electrophysiology assay; format: toxicity, tissue-based, Oryctolagus cuniculus, Heart left ventricle
[9] = Cardiotoxicity in arterially perfused rabbit cardiac left ventricular wedge assessed as change in QT interval at 10 uM by electrophysiology assay; format: toxicity, tissue-based, Oryctolagus cuniculus, Heart left ventricle
[10] = Cardiotoxicity in arterially perfused rabbit cardiac left ventricular wedge assessed as prolongation of QT interval by electrophysiology assay; format: toxicity, tissue-based, Oryctolagus cuniculus, Heart left ventricle
[11] = Cardiotoxicity in arterially perfused rabbit cardiac left ventricular wedge assessed as Tp-e interval time at 0.3 uM by electrophysiology assay (reference value: 59.2 +/- 4.8 milliseconds); format: toxicity, tissue-based, Oryctolagus cuniculus, Heart left ventricle
[12] = Cardiotoxicity in arterially perfused rabbit cardiac left ventricular wedge assessed as Tp-e interval time at 1 uM by electrophysiology assay (reference value: 59.2 +/- 4.8 milliseconds); format: toxicity, tissue-based, Oryctolagus cuniculus, Heart left ventricle
[13] = Cardiotoxicity in arterially perfused rabbit cardiac left ventricular wedge assessed as Tp-e interval time at 3 uM by electrophysiology assay (reference value: 59.2 +/- 4.8 milliseconds); format: toxicity, tissue-based, Oryctolagus cuniculus, Heart left ventricle
[14] = Cardiotoxicity in arterially perfused rabbit cardiac left ventricular wedge assessed as Tp-e interval time at 10 uM by electrophysiology assay (reference value: 59.2 +/- 4.8 milliseconds); format: toxicity, tissue-based, Oryctolagus cuniculus, Heart left ventricle
[15] = Cardiotoxicity in arterially perfused rabbit cardiac left ventricular wedge assessed as QRS interval time at 0.3 uM by electrophysiology assay (reference value: 33.9 +/- 2.7 milliseconds); format: toxicity, tissue-based, Oryctolagus cuniculus, Heart left ventricle
[16] = Cardiotoxicity in arterially perfused rabbit cardiac left ventricular wedge assessed as QRS interval time at 1 uM by electrophysiology assay (reference value: 33.9 +/- 2.7 milliseconds); format: toxicity, tissue-based, Oryctolagus cuniculus, Heart left ventricle
[17] = Cardiotoxicity in arterially perfused rabbit cardiac left ventricular wedge assessed as QRS interval time at 3 uM by electrophysiology assay (reference value: 33.9 +/- 2.7 milliseconds); format: toxicity, tissue-based, Oryctolagus cuniculus, Heart left ventricle
[18] = Cardiotoxicity in arterially perfused rabbit cardiac left ventricular wedge assessed as QRS interval time at 10 uM by electrophysiology assay (reference value: 33.9 +/- 2.7 milliseconds); format: toxicity, tissue-based, Oryctolagus cuniculus, Heart left ventricle
[19] = Cardiotoxicity in arterially perfused rabbit cardiac left ventricular wedge assessed as change in isometric contractile force at 0.3 uM by electrophysiology assay (reference value: 0%); format: toxicity, tissue-based, Oryctolagus cuniculus, Heart left ventricle
[20] = Cardiotoxicity in arterially perfused rabbit cardiac left ventricular wedge assessed as change in isometric contractile force at 1 uM by electrophysiology assay (reference value: 0%); format: toxicity, tissue-based, Oryctolagus cuniculus, Heart left ventricle
[21] = Cardiotoxicity in arterially perfused rabbit cardiac left ventricular wedge assessed as change in isometric contractile force at 3 uM by electrophysiology assay (reference value: 0%); format: toxicity, tissue-based, Oryctolagus cuniculus, Heart left ventricle
[22] = Cardiotoxicity in arterially perfused rabbit cardiac left ventricular wedge assessed as change in isometric contractile force at 10 uM by electrophysiology assay (reference value: 0%); format: toxicity, tissue-based, Oryctolagus cuniculus, Heart left ventricle
[23] = Cardiotoxicity in arterially perfused rabbit cardiac left ventricular wedge assessed as Tp-e interval by electrophysiology assay; format: toxicity, tissue-based, Oryctolagus cuniculus, Heart left ventricle
[24] = Clearance in Sprague-Dawley rat at 1.1 mg/kg, iv or 2 mg/kg, po by LC-MS/MS analysis; format: ADME, organism-based; settings: in vivo
[25] = Volume of distribution at steady state in Sprague-Dawley rat at 1.1 mg/kg, iv or 2 mg/kg, po by LC-MS/MS analysis; format: ADME, organism-based; settings: in vivo, read-out: Vdss
[26] = Half life in Sprague-Dawley rat at 1.1 mg/kg, iv by LC-MS/MS analysis; format: ADME, organism-based; settings: in vivo
[27] = Clearance in Beagle dog at 1.1 mg/kg, iv or 2 mg/kg, po by LC-MS/MS analysis; format: ADME, organism-based, Canis lupus familiaris; settings: in vivo
[28] = Volume of distribution at steady state in Beagle dog at 1.1 mg/kg, iv or 2 mg/kg, po by LC-MS/MS analysis; format: ADME, organism-based, Canis lupus familiaris; settings: in vivo, read-out: Vdss
[29] = Half life in Beagle dog at 1.1 mg/kg, iv by LC-MS/MS analysis; format: ADME, organism-based, Canis lupus familiaris; settings: in vivo
[30] = Cmax in Beagle dog at 2 mg/kg, po by LC-MS/MS analysis; format: ADME, organism-based, Canis lupus familiaris; parameters: dose 2 mg/kg, route oral; settings: in vivo
[31] = AUC in Beagle dog at 2 mg/kg, po by LC-MS/MS analysis; format: ADME, organism-based, Canis lupus familiaris; settings: in vivo
[32] = Oral bioavailability in Beagle dog at 2 mg/kg by LC-MS/MS analysis; format: ADME, organism-based, Canis lupus familiaris; settings: in vivo
[33] = Fraction unbound in Beagle dog plasma; format: ADME, cell-free, Canis lupus familiaris
[34] = Clearance in Sprague-Dawley rat at 2 mg/kg, iv or 2 mg/kg, po by LC-MS/MS analysis; format: ADME, organism-based; settings: in vivo
[35] = Volume of distribution at steady state in Sprague-Dawley rat at 2 mg/kg, iv or 2 mg/kg, po by LC-MS/MS analysis; format: ADME, organism-based; settings: in vivo, read-out: Vdss
[36] = Half life in Sprague-Dawley rat at 2 mg/kg, iv by LC-MS/MS analysis; format: ADME, organism-based; settings: in vivo

- half-life [1]: 7 h
- fraction unbound [2]: 0.026
- Time (Rattus norvegicus): 4 h
SMILES: CC(C)(C)S(=O)(=O)c1ccc2nccc(Nc3n[nH]c4ccc(F)cc34)c2c1

- Cmax [3]: 740 ng/mL
- AUC [4]: 2400 ng·h/mL
- bioavailability [5]: 85%
- fraction unbound [2]: 0.055
- clearance [24]: 12 mL/min/kg
- Vd [25]: 1.1 L/kg
- half-life [26]: 3.1 h
- clearance [27]: 20 mL/min/kg
- Vd [28]: 3.5 L/kg
- half-life [29]: 2.5 h
- Cmax [30]: 330 ng/mL
- AUC [31]: 1900 ng·h/mL
- bioavailability [32]: 96%
- fraction unbound [33]: 0.163
- Time (Rattus norvegicus): 24 h
SMILES: COc1cc2nccc(Nc3n[nH]c(C)c3C)c2cc1S(=O)(=O)C(C)(C)C
- Activity [6]: 2%
- Activity [7]: 3.6%
- Activity [8]: 6.4%
- Activity [9]: 9.3%
- Activity [10]: Dose-dependent effect
- Time [11]: 64.2 ms
- Time [12]: 67.9 ms
- Time [13]: 73.3 ms
- Time [14]: 77 ms
- Time [15]: 34.9 ms
- Time [16]: 35.4 ms
- Time [17]: 35.2 ms
- Time [18]: 36.3 ms
- Activity [19]: -9.9%
- Activity [20]: -17.3%
- Activity [21]: -22.6%
- Activity [22]: -28%
- Activity [23]: Dose-dependent effect

- clearance [34]: 12 mL/min/kg
- Vd [35]: 2.1 L/kg
- half-life [36]: 4.2 h
- Cmax [3]: 990 ng/mL
- AUC [4]: 3800 ng·h/mL
- bioavailability [5]: 82%
- fraction unbound [2]: 0.112
SMILES: Cc1[nH]nc(Nc2ccnc3ccc(S(=O)(=O)C(C)(C)C)cc23)c1C
